Measured values: ChEMBL document CHEMBL2434896, “Carbonic anhydrase inhibitors. Synthesis of heterocyclic 4-substituted pyridine-3-sulfonamide derivatives and their inhibition of the human cytosolic isozymes I and II and transmembrane tumor-associated isozymes IX and XII” (Eur J Med Chem, 2013)
Active and inactive are the calls of the source. The calls are words filed in the database; no cut-off is given here.

What was measured:
[1] = system: 786-0; assay: Growth inhibition of human 786-0 cells at 10 uM after 48 hrs by sulforhodamine B assay; type: functional
[2] = system: BT-549; assay: Growth inhibition of human BT549 cells at 10 uM after 48 hrs by sulforhodamine B assay; type: functional; settings: BT-549, 48 h, read-out: GI
[3] = system: MDA-MB-231; assay: Growth inhibition of human MDA-MB-231 cells at 10 uM after 48 hrs by sulforhodamine B assay; type: functional
[4] = system: NCI-H522; assay: Growth inhibition of human NCI-H522 cells at 10 uM after 48 hrs by sulforhodamine B assay; type: functional; settings: NCI-H522, 48 h, read-out: GI
[5] = system: UACC-62; assay: Growth inhibition of human UACC62 cells at 10 uM after 48 hrs by sulforhodamine B assay; type: functional
[6] = system: HT-29; assay: Growth inhibition of human HT-29 cells at 10 uM after 48 hrs by sulforhodamine B assay; type: functional
[7] = system: SF-268; assay: Growth inhibition of human SF268 cells at 10 uM after 48 hrs by sulforhodamine B assay; type: functional
[8] = system: RXF 393; assay: Growth inhibition of human RXF393 cells at 10 uM after 48 hrs by sulforhodamine B assay; type: functional
[9] = system: CAKI-1; assay: Growth inhibition of human CAKI-1 cells at 10 uM after 48 hrs by sulforhodamine B assay; type: functional; settings: CAKI-1, 48 h, read-out: GI
[10] = system: SK-OV-3; assay: Growth inhibition of human SKOV3 cells at 10 uM after 48 hrs by sulforhodamine B assay; type: functional
[11] = Growth inhibition of human EKVX cells at 10 uM after 48 hrs by sulforhodamine B assay; type: functional; settings: read-out: GI
[12] = system: NCI-H460; assay: Growth inhibition of human NCI-H460 cells at 10 uM after 48 hrs by sulforhodamine B assay; type: functional
[13] = system: SF-539; assay: Growth inhibition of human SF539 cells at 10 uM after 48 hrs by sulforhodamine B assay; type: functional; settings: SF-539, 48 h, read-out: GI
[14] = system: UO-31; assay: Growth inhibition of human UO31 cells at 10 uM after 48 hrs by sulforhodamine B assay; type: functional; settings: UO-31, 48 h, read-out: GI
[15] = system: COLO 205; assay: Growth inhibition of human COLO205 cells at 10 uM after 48 hrs by sulforhodamine B assay; type: functional
[16] = system: SR; assay: Growth inhibition of human SR cells at 10 uM after 48 hrs by sulforhodamine B assay; type: functional; settings: read-out: GI
[17] = system: SNB-75; assay: Growth inhibition of human SNB75 cells at 10 uM after 48 hrs by sulforhodamine B assay; type: functional; settings: SNB-75, 48 h, read-out: GI
[18] = system: SN12C; assay: Growth inhibition of human SN12C cells at 10 uM after 48 hrs by sulforhodamine B assay; type: functional
[19] = system: DU-145; assay: Growth inhibition of human DU145 cells at 10 uM after 48 hrs by sulforhodamine B assay; type: functional
[20] = system: KM12; assay: Growth inhibition of human KM12 cells at 10 uM after 48 hrs by sulforhodamine B assay; type: functional
[21] = system: OVCAR-3; assay: Growth inhibition of human OVCAR3 cells at 10 uM after 48 hrs by sulforhodamine B assay; type: functional
[22] = system: M14; assay: Growth inhibition of human M14 cells at 10 uM after 48 hrs by sulforhodamine B assay; type: functional
[23] = system: T47D; assay: Growth inhibition of human T47D cells at 10 uM after 48 hrs by sulforhodamine B assay; type: functional; settings: read-out: GI
[24] = system: Malme-3M; assay: Growth inhibition of human MALME-3M cells at 10 uM after 48 hrs by sulforhodamine B assay; type: functional; settings: read-out: GI
[25] = system: NCI/ADR-RES; assay: Growth inhibition of human NCI-ADR-RES cells at 10 uM after 48 hrs by sulforhodamine B assay; type: functional
[26] = system: SW-620; assay: Growth inhibition of human SW620 cells at 10 uM after 48 hrs by sulforhodamine B assay; type: functional
[27] = system: HOP-62; assay: Growth inhibition of human HOP62 cells at 10 uM after 48 hrs by sulforhodamine B assay; type: functional
[28] = system: SF-295; assay: Growth inhibition of human SF295 cells at 10 uM after 48 hrs by sulforhodamine B assay; type: functional; settings: SF-295, 48 h, read-out: GI
[29] = system: SNB-19; assay: Growth inhibition of human SNB19 cells at 10 uM after 48 hrs by sulforhodamine B assay; type: functional
[30] = system: OVCAR-4; assay: Growth inhibition of human OVCAR4 cells at 10 uM after 48 hrs by sulforhodamine B assay; type: functional
[31] = system: A498; assay: Growth inhibition of human A498 cells at 10 uM after 48 hrs by sulforhodamine B assay; type: functional
[32] = system: HL-60(TB); assay: Growth inhibition of human HL-60(TB) cells at 10 uM after 48 hrs by sulforhodamine B assay; type: functional; settings: HL-60, 48 h, read-out: GI
[33] = system: RPMI-8226; assay: Growth inhibition of human RPMI8226 cells at 10 uM after 48 hrs by sulforhodamine B assay; type: functional; settings: RPMI-8226, 48 h, read-out: GI
[34] = system: OVCAR-5; assay: Growth inhibition of human OVCAR5 cells at 10 uM after 48 hrs by sulforhodamine B assay; type: functional
[35] = system: K562; assay: Growth inhibition of human K562 cells at 10 uM after 48 hrs by sulforhodamine B assay; type: functional
[36] = biological target: Carbonic anhydrase 9 (Homo sapiens, UniProt Q16790); assay: Inhibition of human carbonic anhydrase 9 after 15 mins by stopped flow CO2 hydration assay
[37] = system: CCRF-CEM; assay: Growth inhibition of human CCRF-CEM cells at 10 uM after 48 hrs by sulforhodamine B assay; type: functional; settings: read-out: GI
[38] = system: Hs-578T; assay: Growth inhibition of human Hs 578T cells at 10 uM after 48 hrs by sulforhodamine B assay; type: functional
[39] = system: TK-10; assay: Growth inhibition of human TK10 cells at 10 uM after 48 hrs by sulforhodamine B assay; type: functional
[40] = system: NCI-H322M; assay: Growth inhibition of human NCI-H322M cells at 10 uM after 48 hrs by sulforhodamine B assay; type: functional
[41] = system: PC-3; assay: Growth inhibition of human PC3 cells at 10 uM after 48 hrs by sulforhodamine B assay; type: functional
[42] = system: ACHN; assay: Growth inhibition of human ACHN cells at 10 uM after 48 hrs by sulforhodamine B assay; type: functional
[43] = system: MCF7; assay: Growth inhibition of human MCF7 cells at 10 uM after 48 hrs by sulforhodamine B assay; type: functional
[44] = system: HCT-15; assay: Growth inhibition of human HCT15 cells at 10 uM after 48 hrs by sulforhodamine B assay; type: functional
[45] = system: SK-MEL-2; assay: Growth inhibition of human SK-MEL-2 cells at 10 uM after 48 hrs by sulforhodamine B assay; type: functional
[46] = system: MDA-MB-435; assay: Growth inhibition of human MDA-MB-435 cells at 10 uM after 48 hrs by sulforhodamine B assay; type: functional
[47] = system: SK-MEL-5; assay: Growth inhibition of human SK-MEL-5 cells at 10 uM after 48 hrs by sulforhodamine B assay; type: functional
[48] = system: HOP-92; assay: Growth inhibition of human HOP92 cells at 10 uM after 48 hrs by sulforhodamine B assay; type: functional
[49] = system: MOLT-4; assay: Growth inhibition of human MOLT4 cells at 10 uM after 48 hrs by sulforhodamine B assay; type: functional; settings: MOLT-4, 48 h, read-out: GI
[50] = system: HCC 2998; assay: Growth inhibition of human HCC2998 cells at 10 uM after 48 hrs by sulforhodamine B assay; type: functional
[51] = system: LOX IMVI; assay: Growth inhibition of human LOXIMVI cells at 10 uM after 48 hrs by sulforhodamine B assay; type: functional
[52] = system: MDA-MB-468; assay: Growth inhibition of human MDA-MB-468 cells at 10 uM after 48 hrs by sulforhodamine B assay; type: functional
[53] = system: HCT-116; assay: Growth inhibition of human HCT116 cells at 10 uM after 48 hrs by sulforhodamine B assay; type: functional; settings: HCT-116, 48 h, read-out: GI
[54] = system: SK-MEL-28; assay: Growth inhibition of human SK-MEL-28 cells at 10 uM after 48 hrs by sulforhodamine B assay; type: functional, cell-based
[55] = system: IGROV-1; assay: Growth inhibition of human IGROV1 cells at 10 uM after 48 hrs by sulforhodamine B assay; type: functional
[56] = system: NCI-H23; assay: Growth inhibition of human NCI-H23 cells at 10 uM after 48 hrs by sulforhodamine B assay; type: functional
[57] = system: NCI-H226; assay: Growth inhibition of human NCI-H226 cells at 10 uM after 48 hrs by sulforhodamine B assay; type: functional

SMILES: NS(=O)(=O)c1cnccc1N1CCN(c2ccccc2)CC1
- growth inhibition (GI) [1]: inactive
- inhibition of growth at 10 µM [2]: 4%
- growth inhibition (GI) [3]: inactive
- inhibition of growth at 10 µM [4]: 1%
- growth inhibition (GI) [5]: inactive
- growth inhibition (GI) [6]: inactive
- growth inhibition (GI) [7]: inactive
- growth inhibition (GI) [8]: inactive
- inhibition of growth at 10 µM [9]: 8%
- growth inhibition (GI) [10]: inactive
- inhibition of growth at 10 µM [11]: 4%
- growth inhibition (GI) [12]: inactive
- inhibition of growth at 10 µM [13]: 3%
- inhibition of growth at 10 µM [14]: 14%
- growth inhibition (GI) [15]: inactive
- inhibition of growth at 10 µM [16]: 8%
- inhibition of growth at 10 µM [17]: 1%
- growth inhibition (GI) [18]: inactive
- growth inhibition (GI) [19]: inactive
- growth inhibition (GI) [20]: inactive
- growth inhibition (GI) [21]: inactive
- growth inhibition (GI) [22]: inactive
- inhibition of growth at 10 µM [23]: 1%
- inhibition of growth at 10 µM [24]: 8%
- growth inhibition (GI) [25]: inactive
- growth inhibition (GI) [26]: inactive
- growth inhibition (GI) [27]: inactive
- inhibition of growth at 10 µM [28]: 4%
- growth inhibition (GI) [29]: inactive
- growth inhibition (GI) [30]: inactive
- growth inhibition (GI) [31]: inactive
- inhibition of growth at 10 µM [32]: 2%
- inhibition of growth at 10 µM [33]: 10%
- growth inhibition (GI) [34]: inactive
- growth inhibition (GI) [35]: inactive
- Ki [36]: 124 nM
- inhibition of growth at 10 µM [37]: 7%
- growth inhibition (GI) [38]: inactive
- growth inhibition (GI) [39]: inactive
- growth inhibition (GI) [40]: inactive
- growth inhibition (GI) [41]: inactive
- growth inhibition (GI) [42]: inactive
- growth inhibition (GI) [43]: inactive
- growth inhibition (GI) [44]: inactive
- growth inhibition (GI) [45]: inactive
- growth inhibition (GI) [46]: inactive
- growth inhibition (GI) [47]: inactive
- growth inhibition (GI) [48]: inactive
- inhibition of growth at 10 µM [49]: 5%
- growth inhibition (GI) [50]: inactive
- growth inhibition (GI) [51]: inactive
- growth inhibition (GI) [52]: inactive
- inhibition of growth at 10 µM [53]: 1%
- growth inhibition (GI) [54]: inactive
- growth inhibition (GI) [55]: inactive
- growth inhibition (GI) [56]: inactive
- growth inhibition (GI) [57]: inactive
